Laboratory results published in article PMC6930524, “A Prospective Repurposing of Dantrolene as a Multitarget Agent for Alzheimer’s Disease” (Molecules, 2019).

How the values were obtained:
[1] = molecular target: T1, BChE from human serum (hBChE) (Homo sapiens, UniProt P06276); test: hBChE inhibition, Ellman's spectrophotometric assay; type: biochemical; settings: mean ± SEM of three independent experiments
T1 construct: BChE from human serum (50 U/mg); purchased Sigma-Aldrich Europe (Milan, Italy); host or cells: human serum
Protocol: An already published method was used to apply the Ellman’s spectrophotometric assay to the 96-well plate technique. […] Experiments were performed in duplicate in transparent, flat-bottomed polystyrene 96-well microtiter plates, and readings made with Tecan Infinite M1000 Pro instrument.

[2] = molecular target: T2, beta amyloid peptide 1–40 (Aβ40) (Homo sapiens, UniProt P05067); test: Inhibition of Aβ40 self-aggregation (ThT fluorescence, 2% HFIP); type: biochemical; settings: inhibitor 100 μM, Aβ40 30 μM
T2 construct: beta amyloid peptide 1–40 (Aβ40); purchased Sigma-Aldrich Europe (Milan, Italy)
Source text: As an additional proof of the potential of DAN in interfering with AD-related processes, we investigated the effects on the in vitro self-aggregation of beta amyloid peptide 1–40 (Aβ40) and Tau hexapeptide (306)VQIVYK(311) (PHF6). Aβ40 is used as an in vitro probe of the fibrillization process leading to amyloid fibrils and ultimately to senile plaques in AD [32], while PHF6 represents the highly proaggregating sequence of the repeated domain R3 of Tau protein, responsible of the formation of neurofibrillary tangles and other tauopathies in NDs. With this aim, we developed a fast screening method of Aβ40 aggregation using thioflavin T (ThT) as fluorescent probe and 2% 1,1,1,3,3,3-hexafluoro-2-propanol (HFIP) as aggregation enhancer. Regarding PHF6, we started from an already published methodology for the setup of an in-house method, with 2,2,2-trifluoroethanol (TFE) as the cosolvent. […] Quercetin was used as a standard reference for the inhibition of amyloid aggregation. The concentrations of inhibitors were 100 μM and 25 μM in Aβ40 and in PHF6 assay, respectively. […]
An already established assay was used in a 96-well plate procedure, using HFIP as aggregation enhancer. […] After addition of ThT, the fluorescence was read at 440/485 excitation/emission wavelength. […] Inhibition values were calculated by means of Prism.

[3] = molecular target: T3, Tau hexapeptide (306)VQIVYK(311) (PHF6) (Homo sapiens, UniProt P10636); test: Inhibition of PHF6 self-aggregation (ThT fluorescence, TFE cosolvent); type: biochemical; settings: inhibitor 25 μM, PHF6 50 μM
T3 construct: Tau hexapeptide (306)VQIVYK(311) (PHF6); purchased JPT Peptide Technologies GmbH, Berlin, Germany; host or cells: synthetic peptide
Source text: As an additional proof of the potential of DAN in interfering with AD-related processes, we investigated the effects on the in vitro self-aggregation of beta amyloid peptide 1–40 (Aβ40) and Tau hexapeptide (306)VQIVYK(311) (PHF6). Aβ40 is used as an in vitro probe of the fibrillization process leading to amyloid fibrils and ultimately to senile plaques in AD [32], while PHF6 represents the highly proaggregating sequence of the repeated domain R3 of Tau protein, responsible of the formation of neurofibrillary tangles and other tauopathies in NDs. […]
Highly aggregating hexapeptide Ac-VQIVYK-NH2 (trifluoroacetate salt; JPT Peptide Technologies GmbH, Berlin, Germany) was used as mimic of tau fibrillization in vitro. […] Incubation samples were prepared in black low-binding, flat-bottomed polystyrene 96-well microtiter plates, containing PHF6 (final conc. 50 μM), inhibitor (25 μM) and ThT (10 μM) in a final volume of 180 μL, and immediately read with Tecan Infinite M1000 Pro instrument. Samples were set in triplicate and their fluorescence values subtracted of the blank. […] Fluorescence was measured at 440/485 excitation/emission wavelength within 2 h at 25 °C. Endpoint fluorescence values (arbitrary fluorescence units, AFU) were used for the calculation of residual aggregation as in Equation (1): % residual aggregation = 100 × AFUsample/AFUcontrol(1)

[4] = DPPH radical scavenging assay; type: physicochemical; settings: compound 50 μM, DPPH 100 μM
Source text: (§1) Starting from these evidences, we tested DAN in two in vitro models of radical scavenging activity, i.e., the 1,1-diphenyl-2-picryl-hydrazyl (DPPH) and 2,2′-azinobis-(3-ethylbenzothiazoline-6-sulfonic acid) (ABTS) free radical production. Both generate stable nitrogen radicals showing high absorption in visible spectrum, thus allowing easy and straightforward spectrophotometric measures. […] It can be assumed that the antioxidant activity of DAN is independent from its radical scavenging properties.
(§2) Already published protocols for DPPH and […] radical scavenging were used. The scavenging of the radical DPPH^·, or the monocation radical ABTS^·+, were determined by measuring the loss of absorbance at 515 or 755 nm, respectively. Samples were prepared in clear polystyrene flat-bottomed 96-well microplates. […] A preliminary absorbance reading at 755 nm allowed to determine the actual ABTS^·+ concentration (normally 60–70 μM; extinction coefficient ε = 12,000) and set the final concentration of inhibitors to 0.2[ABTS^·+]. 215 μL of ABTS^·+ solution were mixed with 35 μL of stock solution of inhibitors and the decrease in absorbance was monitored. Antioxidant activity was determined from Equation (2) as the percentage of radical production of inhibitor containing samples, compared with control: % radical production = 100 × ABSsample/ABScontrol(2)

[5] = ABTS radical scavenging assay; type: physicochemical; settings: compound at 0.2·[ABTS+]
Source text: as §1, §2

[6] = parameters: method as in PMID 11735355; settings: cited from earlier work
[7] = parameters: method as in PMID 11735355; settings: cited from earlier work; remark: listed apart in the source
[8] = cited from earlier work

T1 sequence (P06276 29-602): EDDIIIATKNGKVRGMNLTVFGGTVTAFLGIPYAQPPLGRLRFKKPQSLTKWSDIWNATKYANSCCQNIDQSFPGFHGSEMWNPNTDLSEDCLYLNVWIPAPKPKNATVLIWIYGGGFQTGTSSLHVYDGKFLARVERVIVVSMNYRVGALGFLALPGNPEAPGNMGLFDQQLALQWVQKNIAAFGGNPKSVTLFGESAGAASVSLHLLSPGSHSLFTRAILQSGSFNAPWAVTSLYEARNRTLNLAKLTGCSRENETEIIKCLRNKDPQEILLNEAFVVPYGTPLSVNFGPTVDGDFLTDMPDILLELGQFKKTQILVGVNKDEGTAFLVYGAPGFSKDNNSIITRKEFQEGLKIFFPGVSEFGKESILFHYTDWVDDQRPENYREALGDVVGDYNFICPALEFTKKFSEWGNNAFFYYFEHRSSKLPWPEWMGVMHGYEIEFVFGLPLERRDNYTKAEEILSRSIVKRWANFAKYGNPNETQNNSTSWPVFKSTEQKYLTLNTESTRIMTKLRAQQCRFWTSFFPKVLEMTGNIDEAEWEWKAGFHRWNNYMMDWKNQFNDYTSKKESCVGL
T2 sequence (P05067 672-711 limits assumed): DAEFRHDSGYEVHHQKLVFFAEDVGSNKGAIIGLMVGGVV

## O=C1CN(/N=C/c2ccc(-c3ccc([N+](=O)[O-])cc3)o2)C(O)=N1 [Dantrolene]
[1]
  hBChE IC50: No inhibition
[2]
  inhibition at 100 µM: 56%
[3]
  inhibition at 25 µM: 32%
[4]
  DPPH radical scavenging activity: no activity
[5]
  ABTS radical scavenging activity: no activity
[6]
  antioxidant potency, inhibition of Fe2+/thiocyanate peroxidation of linoleic acid: high antioxidant potency
[7]
  antioxidant potency, Fe3+/Fe2+ reduction: high antioxidant potency
[8]
  concentration found in the cytosolic compartment in vivo: 10 µM
